Data taken from patent publication US20120269781A1, “METHOD FOR PROLIFERATING HAIR FOLLICLE STEM CELLS” (RNL BIO CO., LTD., priority 2009, published 2012).

How the values were obtained:
follicular stem cells [1] = assay: Culture of follicular stem cells in 9 kinds of media with or without ROCK inhibitor; format: cell-based, human; conditions: 10 μM
Experimental: Then, the follicular stem cells were added to each well of a 12-well plate, and 1 ml of each of control groups and test groups for 9 kinds of media containing ITS+ (insulin, transferrine, selenium) premix, EGF, bFGF and an antibiotic/antimycotic mixture was added to each well of the 12-well plate. 10 μl (10 μM) of the ROCK inhibitor Y-27632 was added to each of the test groups, and the cells were cultured.
At days 2, 3 and 4 after the start of culture, the state of proliferation of the follicular stem cells in each of the media was observed, and the results of the observation are shown in FIGS. 1 to 5.

follicular stem cells [2] = assay: Proliferation ability of follicular stem cells at various concentrations of ROCK inhibitor; format: cell-based, human; conditions: M199/F-12 medium, days 2-6
Experimental: In order to examine the proliferation ability of follicular stem cells at various concentrations of the ROCK inhibitor, the ROCK inhibitor was added at various concentrations to a M199/F-12 medium containing ITS+ premix, EGF, bFGF and antibiotic/antimycotic mixture, and the follicular stem cells obtained in Example 1 were cultured in the medium. Specifically, 10 μM of the ROCK inhibitor was added to M199/F-12 used in Example 1, and the P1 follicular stem cells were cultured in the M199/F-12 medium and collected by TrypLE-Express treatment. Then, the cells were added to each well of a 6-well plate at a density of 7.70×10^5 cells, and 2 ml of M199/F-12 was added to each well of the 6-well plate. The cell suspension was plated in each well of a 6-well plate, and then the ROCK inhibitor Y-27632 was added at concentrations of 10 nM, 100 nM, 1 μM, 10 μM and 100 μM to the 5 wells (excluding the well for a control group) of the 6-well plate, respectively, followed by culture of the follicular stem cells. The medium was replaced at 2-day intervals during culture of the cells, and the cells were photographed 2, 3, 4, 5 and 6 days after the start of cell culture.

CC(N)C1CCC(C(=O)Nc2ccncc2)CC1 (stereo not drawn) [ROCK inhibitor, Y-27632]
effect on the proliferation of the follicular stem cells compared to the control groups (follicular stem cells [1]; in M199/F12, MEM-alpha, DMEM L/G, DMEM H/G, MCDB 131 and IMEM medium): good effects | effect on the proliferation of the follicular stem cells compared to the control groups (follicular stem cells [1]; in M199/F12 medium and MEM-alpha medium): most excellent effects | effect on increase in the number and on the viability of follicular stem cells (follicular stem cells [1]; specific media containing the ROCK inhibitor): excellent effects | proliferation of the cells versus cells not treated (follicular stem cells [2]; 100 nM or less): did not significantly differ | morphology / differentiation of the cells (follicular stem cells [2]; 1 μM or 100 μM): morphological change or differentiation of the cells appeared | proliferation of the cells (follicular stem cells [2]; 1 μM or 100 μM): enhanced
